Data reported in publication PMC8433052 (iScience, 2021).
Like-named read-outs stand apart in the source and are kept apart here.

Tests used:
[1] = tested on: DENV2; assay: CPE-based antiviral assay (resazurin), DENV2 in BHK-21; type: cell-based, Dengue virus 2; settings: Dengue virus, DENV2, BHK-21, 96 h, read-out: EC50 against DENV2
[2] = tested on: BHK-21 cells; assay: Cytotoxicity assay in BHK-21 cells; type: cell-based, Hamster; settings: concentrations up to 20 μM
[3] = Cytotoxicity assay in BHK-21 cells; type: cell-based, Hamster; settings: hamster
[4] = Cytotoxicity against Caco-2 cells; type: cell-based; settings: human
Method: (§1) The MTT (3-[4,5-dimethyl-2-thiazolyl]-2,5-diphenyl-2H-tetrazolium bromide) and resazurin reduction assays were carried out as previously described ([Nobori et al., 2018]; [Sanaki et al., 2019]). These were performed to calculate cell viability following viral induced CPE or cytotoxicity. Assay conditions for flaviviruses are as described in Table 2.

[5] = tested on: SARS-CoV; type: cell-based; settings: supernatants of SARS-CoV-infected Caco-2 cells, 0.5 μM, 48 hpi
[6] = tested on: DENV4; assay: CPE-based antiviral assay (resazurin), DENV4 in BHK-21; type: cell-based, Dengue virus 4; settings: Dengue virus, DENV4, BHK-21, 120 h, read-out: EC50 against DENV4
[7] = tested on: SARS-CoV; type: cell-based; settings: MRC5/ACE2 cells, 1 μM, 48 hpi
[8] = tested on: SARS-CoV; type: cell-based; settings: Caco-2 cells, MOI 0.1, 48 hpi
[9] = tested on: MRC5 cells; assay: Cytotoxicity against MRC5 cells; type: cell-based, Human; settings: mean from three independent experiments (Table 4), read-out: CC50 MRC5, mean
Method: as §1

[10] = Cytotoxicity against MRC5 cells; type: cell-based, Human; settings: human, rescreening (Table 3), read-out: CC50
Method: as §1

[11] = tested on: HCoV-229E; assay: Resazurin reduction assay, HCoV-229E-infected MRC5 cells; settings: for EC50: Human coronavirus 229E
[12] = Cytotoxicity against VeroE6/TMPRSS2 cells; type: cell-based; settings: African green monkey
Method: as §1

[13] = tested on: HCoV-OC43; assay: Resazurin reduction assay, HCoV-OC43-infected MRC5 cells
[14] = tested on: HCoV-OC43; type: cell-based, Human coronavirus OC43
[15] = tested on: WNV; assay: CPE-based antiviral assay (MTT), WNV in BHK-21; type: cell-based; settings: West Nile virus, BHK-21, 72 h, read-out: EC50 against WNV
[16] = tested on: ZIKV; assay: CPE-based antiviral assay (MTT), ZIKV in BHK-21; type: cell-based; settings: Zika virus, BHK-21, 72 h, read-out: EC50 against ZIKV
[17] = Cytotoxicity against Huh7 cells; type: cell-based; settings: human
Method: as §1

[18] = tested on: SARS-CoV-2; type: cell-based
[19] = tested on: SARS-CoV-2; assay: qRT-PCR of viral RNA, SARS-CoV-2-infected Caco-2 cells; type: cell-based; settings: MOI 0.1, 48 hpi
[20] = tested on: HCoV-OC43; assay: Immunofluorescence assay of viral nucleoprotein, HCoV-OC43 in A549/TMPRSS2 cells; type: cell-based, Human coronavirus OC43; settings: HCoV-OC43 MOI 1, 48 hpi
[21] = tested on: SARS-CoV-2; assay: qRT-PCR analysis of SARS-CoV-2 in Caco-2 cells (rescreening, supernatant viral RNA); type: cell-based; settings: Severe acute respiratory syndrome coronavirus 2; qRT-PCR analysis using Caco-2 cells, MOI 0.1, 48 h
[22] = tested on: DENV1; assay: CPE-based antiviral assay (resazurin), DENV1 in BHK-21; type: cell-based, Dengue virus 1; settings: Dengue virus, DENV1, BHK-21, 120 h, read-out: EC50 against DENV1
[23] = Cytotoxicity against A549/TMPRSS2 cells; type: cell-based; settings: human
Method: as §1

[24] = tested on: DENV3; assay: CPE-based antiviral assay (resazurin), DENV3 in BHK-21; type: cell-based, Dengue virus 3; settings: Dengue virus, DENV3, BHK-21, 120 h, read-out: EC50 against DENV3
[25] = tested on: HCoV-OC43; assay: qRT-PCR of viral RNA, HCoV-OC43-infected Huh7 cells; type: cell-based, Human coronavirus OC43; settings: MOI 0.1, 48 hpi, serially diluted compound
[26] = tested on: HCoV-229E; assay: qRT-PCR of viral RNA, HCoV-229E-infected Huh7 cells; type: cell-based, Human coronavirus 229E; settings: MOI 0.05, 48 hpi, serially diluted compound
[27] = tested on: SARS-CoV-2; assay: Time-of-addition assay, SARS-CoV-2 in Caco-2 cells; type: cell-based; settings: 1 μM added at 3 hpi, read at 24 hpi
Method: The time-of-addition assay was performed according to previous reports ([Ohashi et al., 2021]; [Wang et al., 2020]). Briefly, Caco-2 cells were seeded on the day before SARS-CoV-2 infection (MOI of 0.1) and compound treatment. One micromolar HMTU or DMSO was then added at the indicated time points (Whole, Entry, and Post-entry). For “Whole” treatment, the cells were incubated with both the compound and virus for 1 h. After incubation, unbound viruses were removed, and the cells were cultured with HMTU-containing medium for 2 h to allow viral entry. At 3 hpi, culture supernatants were replaced with new HMTU-containing media and maintained until the end of the experiment. For “Entry” treatment, the cells were incubated as described above, and at 3 hpi, HMTU-containing media were replaced with fresh culture media and maintained until the end of the experiments. For “Post-entry” treatment, HMTU was added to the virus-infected cells at 3 hpi and maintained until the end of the experiment. At 24 hpi, total RNA was isolated, and viral RNA was quantified using qRT–PCR analysis as described above. Supernatants were collected, after which serial dilutions of these supernatants were used to inoculate a monolayer of the VeroE6/TMPRSS2 cells. Three days after inoculation, the CPE was scored, and TCID50/mL was calculated to measure viral titers.

[28] = tested on: SARS-CoV-2; assay: Immunofluorescence assay of viral spike protein, SARS-CoV-2 in MRC5/ACE2 cells; type: cell-based
[29] = tested on: YFV; assay: microbe, parasite or virus in culture; type: cell-based; settings: Yellow fever virus, BHK-21, 72 h, read-out: EC50 against YFV
[30] = tested on: JEV; assay: CPE-based antiviral assay (MTT), JEV in BHK-21; type: cell-based; settings: Japanese encephalitis virus, BHK-21, 72 h, read-out: EC50 against JEV
[31] = MRC5 cells, resazurin reduction assay

Nc1ncnc2c1c(CO)cn2[C@@H]1O[C@H](CO)[C@@H](O)[C@H]1O [HUP1108, 5-hydroxymethyltubercidin]
EC50 [1]: 240 nM | cytotoxicity (in words) [2]: did not exhibit cytotoxicity | CC50 [3]: > 20000 nM | CC50 [4]: > 20000 nM | reduction of progeny virus titer [5]: more than 1 log TCID50/mL | EC50 [6]: 520 nM | viral spike protein expression (IFA) [7]: significantly inhibited | SARS-CoV RNA replication, subgenomic (nucleocapsid) and genomic (RdRp) transcripts [8]: inhibited in a dose-dependent manner | CC50 [9]: > 50000 nM | CC50 [10]: > 50000 nM | EC50 ([11]; MRC5, read-out: HCoV-229E EC50): 430 nM | EC50 ([11]; MRC5, read-out: HCoV-229E EC50, mean): 528 nM | selectivity index (SI = CC50/EC50) for HCoV-229E ([11]; MRC5 cells): > 94 | anti-HCoV-229E activity (in words) [11, 31]: strong antiviral activities | CC50 [12]: > 20000 nM | EC50 ([13]; Betacoronavirus 1, OC43, MRC5, read-out: HCoV-OC43 EC50): 350 nM | EC50 ([13]; Betacoronavirus 1, OC43, MRC5, read-out: HCoV-OC43 EC50, mean): 378 nM | selectivity index (SI = CC50/EC50) for HCoV-OC43 ([13]; MRC5 cells): > 132 | anti-HCoV-OC43 activity (in words) [13, 31]: strong antiviral activities | reduction in progeny virus titer [14]: > 1 log | EC50 [15]: 950 nM | EC50 [16]: 1300 nM | CC50 [17]: > 20000 nM | reduction of progeny virus titer [18]: more than 1 log TCID50/mL | SARS-CoV-2 RNA replication, subgenomic (nucleocapsid) and genomic (RdRp) transcripts [19]: inhibited in a dose-dependent manner | positive signals of viral nucleoprotein (IFA) [20]: decreased in a dose-dependent fashion | EC90 [21]: 570 nM | EC50 [22]: 350 nM | CC50 [23]: > 20000 nM | EC50 [24]: 420 nM | HCoV-OC43 replication, subgenomic (nucleocapsid) and genomic (ORF1b) RNA transcripts [25]: dose-dependent inhibition | HCoV-229E replication, subgenomic (nucleocapsid) and genomic (ORF1b) RNA transcripts [26]: dose-dependent inhibition | intracellular and extracellular viral RNAs, post-entry step [27]: significantly reduced | viral spike protein expression (IFA) [28]: significantly inhibited | EC50 [29]: 270 nM | EC50 [30]: 500 nM
